Measurements published in the NIST ThermoML archive (doi:10.1021/je800940j).

Assay: xn = mol fraction of the nth substance listed
Conditions: 101 kPa, Liquid; for viscosity: Concentric cylinders viscometry

C1CCCCC1 [cyclohexane] + Cc1ccccc1
Conditions | mass density, 283.15 K [kg/m3] | mass density, 293.15 K [kg/m3] | mass density, 303.15 K [kg/m3] | mass density, 313.15 K [kg/m3] | mass density, 323.15 K [kg/m3] | viscosity, 283.15 K [mPa·s] | viscosity, 293.15 K [mPa·s] | viscosity, 303.15 K [mPa·s] | viscosity, 313.15 K [mPa·s] | viscosity, 323.15 K [mPa·s]
x1 = 0.0958 | 866.15 | 856.9 | 847.5 | 838.15 | 828.65 | 0.6712 | 0.5995 | 0.5395 | 0.4879 | 0.4428
x1 = 0.196 | 855.85 | 846.6 | 837.2 | 827.8 | 818.35 | 0.6623 | 0.5908 | 0.5306 | 0.4776 | 0.431
x1 = 0.2986 | 846 | 836.7 | 827.3 | 817.9 | 808.45 | 0.6792 | 0.6051 | 0.543 | 0.487 | 0.4426
x1 = 0.3988 | 836.5 | 827.2 | 817.8 | 808.4 | 798.9 | 0.6948 | 0.6171 | 0.5524 | 0.4971 | 0.4491
x1 = 0.4974 | 827.65 | 818.35 | 808.9 | 799.45 | 789.95 | 0.7218 | 0.6378 | 0.5683 | 0.5095 | 0.4589
x1 = 0.5989 | 818.8 | 809.4 | 800 | 790.5 | 781 | 0.7635 | 0.67 | 0.5935 | 0.5294 | 0.4735
x1 = 0.6977 | 810.1 | 800.7 | 791.3 | 781.8 | 772.25 | 0.8203 | 0.7137 | 0.6274 | 0.5553 | 0.4886
x1 = 0.7998 | 802.5 | 793.1 | 783.65 | 774.15 | 764.5 | 0.9103 | 0.7838 | 0.6824 | 0.5987 | 0.5292
x1 = 0.8994 | 794.8 | 785.5 | 776.1 | 766.5 | 756.9 | 0.9994 | 0.8472 | 0.7271 | 0.6373 | 0.5583
x1 = 1 | 787.95 | 778.7 | 769.2 | 759.65 | 749.9 | 1.18 | 0.9847 | 0.8295 | 0.7061 | 0.5978
